According to PMC9968125, “Secondary Metabolites with Anti-Inflammatory Activity from Laurencia majuscula Collected in the Red Sea” (Marine Drugs, 2023):
“Also recorded” adds a separate entry of the source. Read-outs that look alike come from different tables or passages of the source.

Assays:
[1] = tested on: nitric oxide (NO) production in LPS-activated RAW 264.7 macrophages; assay: Suppression of NO release (Griess reaction) in LPS/TLR4-activated RAW 264.7 macrophages; assay type: cell-based, mouse; conditions: for IC50: 1 h pre-treatment, LPS 100 ng/mL, Griess reaction at 48 h, read-out: Inhibition of NO Production (IC50)
Experimental: The anti-inflammatory activity of metabolites 1, 2, 4–8, 10, 12–16, 18 and 20–22 was evaluated using the RAW 264.7 macrophage cell line, which has been proven to be a powerful tool for the detection of bioactivity of natural products. The bioactivity of compounds 3, 9, 11, 17 and 19 was not evaluated since they were either proven unstable or isolated in insufficient amounts. RAW 264.7 macrophages were stimulated with the TLR4 ligand LPS, which triggers a pro-inflammatory signal that induces nitric oxide (NO) production, and […] with increasing concentrations of the tested metabolites. The detection of NO was achieved using Griess reaction 48 h following cell activation and was used to determine the IC50 values. Inhibition of NO production was determined by comparing metabolite-treated cells with cells exposed to the vehicle solvent only (0.1% v/v Carbowax^TM 400 and 0.01% v/v ethanol). […] Mouse macrophage RAW 264.7 cell line was cultured in DMEM medium (cat. # 21885-025, Gibco) supplemented with 10% v/v heat-inactivated fetal bovine serum (cat. # 10270-106, Gibco) and 1% v/v penicillin-streptomycin (cat. # 15070-063, Gibco). Cells were grown in stable conditions, 37 °C and 5% CO2, in a CO2 cell culture sterile incubator. In compound treatments, each compound tested was diluted in Carbowax^TM 400 + 10% abs. ethanol (E/0650DF/17, Fisher chemical), serving also as the control solvent. The final concentration of ethanol in cell culture was 0.01% v/v and of Carbowax^TM 400 0.1% v/v independently of the compound dilution prepared. Macrophage activation was performed using 100 ng/mL LPS (L2630, Sigma) and, in the case of compound-treated cells, macrophages were pre-treated for 1 h with the respective compounds before LPS stimulation. 30 × 10^4 RAW 264.7 mouse macrophages per sample were cultured overnight in 24-well plates. The following day, cells were pre-treated for 1 h with the respective compound concentration and then activated using LPS (100 ng/mL) for 48 h. The amount of nitrite, an oxidative product of NO, released in each culture supernatant was measured using Griess reaction. Accordingly, 50 µL of sulfanilamide solution (1% sulfanilamide in 5% H3PO4) was added to 50 µL of cell culture supernatant and the mix was incubated for 5 min at room temperature. Then, 50 µL of NED solution (0.1% N-1-napthylethylenediamine dihydrochlorite in H2O) was added and the absorbance was measured at 540 nm using an automated microplate reader (Infinite 200 PRO, Tecan). All incubations were performed in the dark and the nitrite concentration was estimated using a sodium nitrite standard curve.

RAW 264.7 cells = assay: MTT assay, cytostatic activity on RAW 264.7 cells; assay type: cell-based, mouse; conditions: for Cytostatic Activity: RAW 264.7, at 72 h, n.a. = no cytostatic activity observed at the concentrations tested; for cytostatic activity above the stated concentration: RAW 264.7, 24, 48 and 72 h
Experimental: In order to verify that the anti-inflammatory activity observed was not due to a potential cytostatic effect of the metabolites, an MTT assay was performed in cells exposed to increasing concentrations of metabolites 1, 2, 4–8, 10, 12–16, 18 and 20–22 for 24, 48 and 72 h (Table 3, Figure 5). The time point that the cytostatic activity was observed reflected its potency since cytotoxicity is a cumulative process.
Mouse macrophage RAW 264.7 cell line was cultured in DMEM medium (cat. # 21885-025, Gibco) supplemented with 10% v/v heat-inactivated fetal bovine serum (cat. # 10270-106, Gibco) and 1% v/v penicillin-streptomycin (cat. # 15070-063, Gibco). Cells were grown in stable conditions, 37 °C and 5% CO2, in a CO2 cell culture sterile incubator. In compound treatments, each compound tested was diluted in Carbowax^TM 400 + 10% abs. ethanol (E/0650DF/17, Fisher chemical), serving also as the control solvent. The final concentration of ethanol in cell culture was 0.01% v/v and of Carbowax^TM 400 0.1% v/v independently of the compound dilution prepared. Macrophage activation was performed using 100 ng/mL LPS (L2630, Sigma) and, in the case of compound-treated cells, macrophages were pre-treated for 1 h with the respective compounds before LPS stimulation.
5 × 10^3 RAW 264.7 mouse macrophages per sample were seeded in 96-well plates (one plate per measurement) and cultured overnight. Cells were treated with the respective compound concentration and incubated for 24, 48 or 72 h. The number of cells was measured prior to treatment and used as normalization control. Thiazolyl Blue Tetrazolium Bromide (MTT) (A2231.001, Applichem) was added to the cells in a final concentration of 500 µg/mL and then cells were incubated at 37 °C plus 5% CO2 for 4 h. The supernatant was removed, and cells were lysed in a mix of 100 μL of isopropanol with 0.4% HCl. The absorbance of each sample was measured using an automated microplate reader (Infinite 200 PRO, Tecan) at 600 nm. The average OD of each treated sample was normalized to the OD of the control sample.

[2] = Chemical stability of the isolated compound upon standing; assay type: physicochemical; conditions: upon standing after isolation
[3] = Mus musculus, RAW264.7, RAW 264.7 macrophages

SMILES	IC50 [1, 3]	stability of the isolated compound, in words [2]	IC50 ([1]; RAW 264.7 macrophages)	Cytostatic Activity (RAW 264.7 cells)	cytostatic activity above the stated concentration (RAW 264.7 cells)	concentration at which significant NO reduction was observed ([1]; LPS-activated RAW 264.7, activity only at this concentration)
C#C/C=C\CC(Br)[C@@H]1C[C@@H](OC(C)=O)[C@H](CCCCC)O1 (relative stereo) [Compound 5, (3Z,7S*,9R*,10S*)-9-acetoxy-6-bromo-7,10-epoxypentadec-3-en-1-yne]	3.69 µM	–	–	> 50 µM	–	–
C[C@@]12O[C@]1(C)CC[C@@]2(C)c1ccc(CO)cc1 (relative stereo) [Compound 10, (1S*,2S*,3R*)-2,3-epoxy-15-hydroxydihydroisolaurene]	20.5 µM	–	–	> 50 µM	above 50 μM	–
Cc1ccc([C@]2(C)CC[C@@]3(C)O[C@]32C)cc1 (relative stereo) [Compound 11, (1S*,2S*,3R*)-2,3-epoxydihydroisolaurene]	–	quite unstable	–	–	–	–
CC(=O)CC[C@](C)(C(C)=O)c1ccc(CO)cc1 (single isomer, unassigned) [Compound 14, 2,3-dioxo-15-hydroxy-seco-laurene]	22.7 µM	–	–	> 25 µM	above 25 μM	–
CC1=C(C)[C@](C)(c2ccc(C)cc2)CC1=O (stereo in doubt) [Compound 7, 4-oxoisolaurene]	25.3 µM	–	–	> 25 µM	above 25 μM	–
C#CC=CC(Cl)C1C2CC3OC(OC)(C(Br)CC)C1C3O2 (centres unmarked) [Compound 2, Maneonene G]	–	–	12.7 µM	> 25 µM	above 25 μM	–
C#CC=CC(Cl)C1C2CC3OC(OC)(C(Br)CC)C1C3O2 (centres unmarked) [Compound 3, Maneonene H]	–	unstable	–	–	–	–
CC1=C(C)[C@](C)(c2ccc(C)cc2)CC1 [Compound 6, isolaurene]	> 62.5 µM	–	–	> 50 µM	–	62.5 µM
C=C1[C@](C)(O)CC[C@@]1(C)c1ccc(CO)cc1 [Compound 12, laur-2-ene-3,12-diol]	45.2 µM	–	–	> 50 µM	above 50 μM	–
CC1(C)[C@H](O)CC[C@@]1(C)c1ccc(CO)cc1 [Compound 13, cuparene-3,12-diol]	23.8 µM	–	–	> 50 µM	above 50 μM	–
C=CC(C)(O)CC[C@@H]1C(=C)CC[C@H](Br)C1(C)C (stereo partly drawn) [Compound 15, β-snyderol]	33.1 µM	–	–	> 25 µM	above 25 μM	–
CCCCCCCCCCCC/C=C(\Cl)C=O [Compound 22, (2Z)-2-chloro-pentadec-2-enal]	13.2 µM	–	–	> 3.12 µM	> 3.125 µM	–

Now from value to molecule, other results behind:

IC50 [1, 3]	stability of the isolated compound, in words [2]	IC50 ([1]; RAW 264.7 macrophages)	SMILES	Cytostatic Activity (RAW 264.7 cells)	cytostatic activity above the stated concentration (RAW 264.7 cells)	concentration at which significant NO reduction was observed ([1]; LPS-activated RAW 264.7, activity only at this concentration)
6.92 µM	–	–	CC1=C(C)[C@](C)(c2ccc(CBr)cc2)CC1 (single isomer, unassigned) [Compound 8, 15-bromoisolaurene]	> 25 µM	above 25 μM	–
10.2 µM	–	–	C#CC=CC(Cl)C1C2CC3OC(OC)(C(Br)CC)C1C3O2 (centres unmarked) [Compound 1, Maneonene F]	–	did not exhibit any cytostatic activity; also recorded: did not show any cytostatic effect	–
8.91 µM	–	–	C#C/C=C\[C@@H](Cl)[C@H]1[C@@H]2/C(=C(/Br)CC)O[C@@H]3C[C@H]1O[C@H]23 [Compound 4, cis-maneonene D]	–	did not exhibit any cytostatic activity; also recorded: no significant cytostatic activity	–
4.97 µM	–	–	CC1=CC[C@@H](Br)C(C)(C)[C@]12CC[C@](C)(Cl)[C@@H](Br)C2 [Compound 16, 2,10-dibromo-3-chloro-a-chamigrene]	> 25 µM	above 25 μM	–
3.55 µM	–	–	CC1=CC[C@H](C)[C@](C)(O)[C@@]12CC[C@@](C)(Cl)[C@H](Br)C2 [Compound 18, compositacin A]	–	–	–
10.5 µM	–	–	CC1CCC(O)C2=CCC3C(C3(C)C)C21C (stereo not drawn) [Compound 20, aristol-9-en-1α-ol]	> 50 µM	above 50 μM	–
6.66 µM	–	–	C=C1CCC(Br)C(C)(C)C12CCC1(C)C(Br)CCC(C)(O)C1C2 (centres unmarked) [Compound 21, kahukuene B]	> 25 µM	–	–
